Measurements: the supplement of paper PMC10307832

Assays:
Test in all cases: relative viability (nuclei count vs DMSO), 5 days (fraction); higher = more cells survive
[1] = compound: C=CCNC1=C2C[C@@H](C)C[C@H](OC)[C@H](O)[C@@H](C)/C=C(\C)[C@H](OC(N)=O)[C@@H](OC)/C=C\C=C(/C)C(=O)NC(=CC1=O)C2=O [17-AAG] + Cc1nc(Nc2ncc(C(=O)Nc3c(C)cccc3Cl)s2)cc(N2CCN(CCO)CC2)n1 [Dasatinib] (partner 0.075 µM)
Method in brief: (§1)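 Relative viability was taken as the ratio of nuclei in treated wells to nuclei in vehicle wells. Lung cancer cell lines in 1536-well plates received compounds by pin tool one day after seeding, either one drug alone or a fixed anchor-drug dose plus five library-drug doses (not always all listed) in √10 steps. Nuclei were counted on 4× images after 5 days of treatment, and values are medians of duplicate plates.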

[2] = compound: C=CCNC1=C2C[C@@H](C)C[C@H](OC)[C@H](O)[C@@H](C)/C=C(\C)[C@H](OC(N)=O)[C@@H](OC)/C=C\C=C(/C)C(=O)NC(=CC1=O)C2=O [17-AAG] + CC(=O)c1c(C)c2cnc(Nc3ccc(N4CCNCC4)cn3)nc2n(C2CCCC2)c1=O [Palbociclib] (partner 0.5 µM)
Method in brief: as §1

[3] = compound: C=CCNC1=C2C[C@@H](C)C[C@H](OC)[C@H](O)[C@@H](C)/C=C(\C)[C@H](OC(N)=O)[C@@H](OC)/C=C\C=C(/C)C(=O)NC(=CC1=O)C2=O [17-AAG] + O=C(CCCCCCC(=O)Nc1ccccc1)NO [Vorinostat] (partner 1 µM)
Method in brief: as §1

[4] = compound: C=CCNC1=C2C[C@@H](C)C[C@H](OC)[C@H](O)[C@@H](C)/C=C(\C)[C@H](OC(N)=O)[C@@H](OC)/C=C\C=C(/C)C(=O)NC(=CC1=O)C2=O [17-AAG] + Nc1nc2[nH]cc(CCc3ccc(C(=O)N[C@@H](CCC(=O)O)C(=O)O)cc3)c2c(=O)[nH]1 [Pemetrexed] (partner 0.2 µM)
Method in brief: as §1

Cell Line: NCI-H661
- relative viability ([1]; first compound 0.00128 µM): 0.878
- relative viability ([1]; first compound 0.004048 µM): 0.862
- relative viability ([1]; first compound 0.0128 µM): 0.853
- relative viability ([1]; first compound 0.04048 µM): 0.361
- relative viability ([1]; first compound 0.128 µM): 0.195
- relative viability ([2]; first compound 0.00128 µM): 0.411
- relative viability ([2]; first compound 0.004048 µM): 0.365
- relative viability ([2]; first compound 0.0128 µM): 0.314
- relative viability ([2]; first compound 0.04048 µM): 0.353
- relative viability ([2]; first compound 0.128 µM): 0.254
- relative viability ([3]; first compound 0.00128 µM): 0.785
- relative viability ([3]; first compound 0.004048 µM): 0.791
- relative viability ([3]; first compound 0.0128 µM): 0.707
- relative viability ([3]; first compound 0.04048 µM): 0.441
- relative viability ([3]; first compound 0.128 µM): 0.31
- relative viability ([4]; first compound 0.00128 µM): 0.883
- relative viability ([4]; first compound 0.004048 µM): 0.926
- relative viability ([4]; first compound 0.0128 µM): 0.861
- relative viability ([4]; first compound 0.04048 µM): 0.367
- relative viability ([4]; first compound 0.128 µM): 0.31

Cell Line: NCI-H838
- relative viability ([1]; first compound 0.00128 µM): 0.291
- relative viability ([1]; first compound 0.004048 µM): 0.269
- relative viability ([1]; first compound 0.0128 µM): 0.203
- relative viability ([1]; first compound 0.04048 µM): 0.186
- relative viability ([1]; first compound 0.128 µM): 0.2
- relative viability ([2]; first compound 0.00128 µM): 0.234
- relative viability ([2]; first compound 0.004048 µM): 0.209
- relative viability ([2]; first compound 0.0128 µM): 0.133
- relative viability ([2]; first compound 0.04048 µM): 0.14
- relative viability ([2]; first compound 0.128 µM): 0.129
- relative viability ([3]; first compound 0.00128 µM): 0.759
- relative viability ([3]; first compound 0.004048 µM): 0.779
- relative viability ([3]; first compound 0.0128 µM): 0.213
- relative viability ([3]; first compound 0.04048 µM): 0.168
- relative viability ([3]; first compound 0.128 µM): 0.169
- relative viability ([4]; first compound 0.00128 µM): 0.258
- relative viability ([4]; first compound 0.004048 µM): 0.313
- relative viability ([4]; first compound 0.0128 µM): 0.208
- relative viability ([4]; first compound 0.04048 µM): 0.133
- relative viability ([4]; first compound 0.128 µM): 0.154

Cell Line: NCI-H1355
- relative viability ([1]; first compound 0.00128 µM): 0.708
- relative viability ([1]; first compound 0.004048 µM): 0.725
- relative viability ([1]; first compound 0.0128 µM): 0.327
- relative viability ([1]; first compound 0.04048 µM): 0.325
- relative viability ([1]; first compound 0.128 µM): 0.156
- relative viability ([2]; first compound 0.00128 µM): 0.414
- relative viability ([2]; first compound 0.004048 µM): 0.386
- relative viability ([2]; first compound 0.0128 µM): 0.385
- relative viability ([2]; first compound 0.04048 µM): 0.302
- relative viability ([2]; first compound 0.128 µM): 0.157
- relative viability ([3]; first compound 0.00128 µM): 0.639
- relative viability ([3]; first compound 0.004048 µM): 0.692
- relative viability ([3]; first compound 0.0128 µM): 0.607
- relative viability ([3]; first compound 0.04048 µM): 0.228
- relative viability ([3]; first compound 0.128 µM): 0.141
- relative viability ([4]; first compound 0.00128 µM): 1
- relative viability ([4]; first compound 0.004048 µM): 0.993
- relative viability ([4]; first compound 0.0128 µM): 1.06
- relative viability ([4]; first compound 0.04048 µM): 0.623
- relative viability ([4]; first compound 0.128 µM): 0.164

Cell Line: NCI-H1395
- relative viability ([1]; first compound 0.00128 µM): 0.429
- relative viability ([1]; first compound 0.004048 µM): 0.366
- relative viability ([1]; first compound 0.0128 µM): 0.304
- relative viability ([1]; first compound 0.04048 µM): 0.326
- relative viability ([1]; first compound 0.128 µM): 0.287
- relative viability ([2]; first compound 0.00128 µM): 0.632
- relative viability ([2]; first compound 0.004048 µM): 0.61
- relative viability ([2]; first compound 0.0128 µM): 0.532
- relative viability ([2]; first compound 0.04048 µM): 0.373
- relative viability ([2]; first compound 0.128 µM): 0.384
- relative viability ([3]; first compound 0.00128 µM): 0.626
- relative viability ([3]; first compound 0.004048 µM): 0.607
- relative viability ([3]; first compound 0.0128 µM): 0.415
- relative viability ([3]; first compound 0.04048 µM): 0.366
- relative viability ([3]; first compound 0.128 µM): 0.368
- relative viability ([4]; first compound 0.00128 µM): 0.86
- relative viability ([4]; first compound 0.004048 µM): 0.938
- relative viability ([4]; first compound 0.0128 µM): 0.494
- relative viability ([4]; first compound 0.04048 µM): 0.349
- relative viability ([4]; first compound 0.128 µM): 0.354

Cell Line: NCI-H1437
- relative viability ([1]; first compound 0.00128 µM): 0.39
- relative viability ([1]; first compound 0.004048 µM): 0.447
- relative viability ([1]; first compound 0.0128 µM): 0.226
- relative viability ([1]; first compound 0.04048 µM): 0.143
- relative viability ([1]; first compound 0.128 µM): 0.0854
- relative viability ([2]; first compound 0.00128 µM): 0.3
- relative viability ([2]; first compound 0.004048 µM): 0.351
- relative viability ([2]; first compound 0.0128 µM): 0.259
- relative viability ([2]; first compound 0.04048 µM): 0.198
- relative viability ([2]; first compound 0.128 µM): 0.167
- relative viability ([3]; first compound 0.00128 µM): 0.83
- relative viability ([3]; first compound 0.004048 µM): 0.77
- relative viability ([3]; first compound 0.0128 µM): 0.731
- relative viability ([3]; first compound 0.04048 µM): 0.328
- relative viability ([3]; first compound 0.128 µM): 0.235
- relative viability ([4]; first compound 0.00128 µM): 0.348
- relative viability ([4]; first compound 0.004048 µM): 0.37
- relative viability ([4]; first compound 0.0128 µM): 0.246
- relative viability ([4]; first compound 0.04048 µM): 0.214
- relative viability ([4]; first compound 0.128 µM): 0.154

Cell Line: NCI-H1650
- relative viability ([1]; first compound 0.00128 µM): 0.267
- relative viability ([1]; first compound 0.004048 µM): 0.147
- relative viability ([1]; first compound 0.0128 µM): 0.167
- relative viability ([1]; first compound 0.04048 µM): 0.199
- relative viability ([1]; first compound 0.128 µM): 0.148
- relative viability ([2]; first compound 0.00128 µM): 0.294
- relative viability ([2]; first compound 0.004048 µM): 0.187
- relative viability ([2]; first compound 0.0128 µM): 0.122
- relative viability ([2]; first compound 0.04048 µM): 0.115
- relative viability ([2]; first compound 0.128 µM): 0.0961
- relative viability ([3]; first compound 0.00128 µM): 0.371
- relative viability ([3]; first compound 0.004048 µM): 0.376
- relative viability ([3]; first compound 0.0128 µM): 0.232
- relative viability ([3]; first compound 0.04048 µM): 0.152
- relative viability ([3]; first compound 0.128 µM): 0.138
- relative viability ([4]; first compound 0.00128 µM): 0.336
- relative viability ([4]; first compound 0.004048 µM): 0.383
- relative viability ([4]; first compound 0.0128 µM): 0.351
- relative viability ([4]; first compound 0.04048 µM): 0.168
- relative viability ([4]; first compound 0.128 µM): 0.15

Cell Line: NCI-H1651
- relative viability ([1]; first compound 0.00128 µM): 0.486
- relative viability ([1]; first compound 0.004048 µM): 0.415
- relative viability ([1]; first compound 0.0128 µM): 0.206
- relative viability ([1]; first compound 0.04048 µM): 0.186
- relative viability ([1]; first compound 0.128 µM): 0.111
- relative viability ([2]; first compound 0.00128 µM): 0.496
- relative viability ([2]; first compound 0.004048 µM): 0.563
- relative viability ([2]; first compound 0.0128 µM): 0.511
- relative viability ([2]; first compound 0.04048 µM): 0.451
- relative viability ([2]; first compound 0.128 µM): 0.302
- relative viability ([3]; first compound 0.00128 µM): 0.538
- relative viability ([3]; first compound 0.004048 µM): 0.536
- relative viability ([3]; first compound 0.0128 µM): 0.545
- relative viability ([3]; first compound 0.04048 µM): 0.578
- relative viability ([3]; first compound 0.128 µM): 0.492
- relative viability ([4]; first compound 0.00128 µM): 0.635
- relative viability ([4]; first compound 0.004048 µM): 0.605
- relative viability ([4]; first compound 0.0128 µM): 0.585
- relative viability ([4]; first compound 0.04048 µM): 0.536
- relative viability ([4]; first compound 0.128 µM): 0.173

Cell Line: NCI-H1666
- relative viability ([1]; first compound 0.00128 µM): 0.783
- relative viability ([1]; first compound 0.004048 µM): 0.718
- relative viability ([1]; first compound 0.0128 µM): 0.309
- relative viability ([1]; first compound 0.04048 µM): 0.35
- relative viability ([1]; first compound 0.128 µM): 0.295
- relative viability ([2]; first compound 0.00128 µM): 0.618
- relative viability ([2]; first compound 0.004048 µM): 0.672
- relative viability ([2]; first compound 0.0128 µM): 0.609
- relative viability ([2]; first compound 0.04048 µM): 0.519
- relative viability ([2]; first compound 0.128 µM): 0.526
- relative viability ([3]; first compound 0.00128 µM): 1.1
- relative viability ([3]; first compound 0.004048 µM): 1.06
- relative viability ([3]; first compound 0.0128 µM): 1.02
- relative viability ([3]; first compound 0.04048 µM): 0.498
- relative viability ([3]; first compound 0.128 µM): 0.482
- relative viability ([4]; first compound 0.00128 µM): 0.921
- relative viability ([4]; first compound 0.004048 µM): 0.877
- relative viability ([4]; first compound 0.0128 µM): 0.908
- relative viability ([4]; first compound 0.04048 µM): 0.515
- relative viability ([4]; first compound 0.128 µM): 0.517
